Tests used:
mouse splenocytes = assay: Splenic cell proliferation assay (anti-IgM stimulated B cell proliferation, Cell Titer-Glo); assay type: cell-based; details: Splenocyte; CD1 mouse splenocytes, 1 h pre-treatment, 2.5 ug/ml anti-IgM F(ab')2 for 72 h; read-out: EC50 (nM), Inhibition of splenic cell proliferation
Description: Splenic Cell Proliferation Assay
Splenocytes were obtained from 6 week old male CD1 mice (Charles River Laboratories Inc.). Mouse spleens were manually disrupted in PBS and filtered using a 70 μm cell strainer followed by ammonium chloride red blood cell lysis. Cells were washed, resuspended in Splenocyte Medium (HyClone RPMI supplemented with 10% heat-inactivated FBS, 0.5× non-essential amino acids, 10 mM HEPES, 50 uM beta mercaptoethanol) and incubated at 37° C., 5% CO2 for 2 h to remove adherent cells. Suspension cells were seeded in 96 well plates at 50,000 cells per well and incubated at 37° C., 5% CO2 for 1 h. Splenocytes were pre-treated in triplicate with 10,000 nM curves of Formula 1 compounds for 1 h, followed by stimulation of B cell proliferation with 2.5 ug/ml anti-IgM F(ab′)2 (Jackson ImmunoResearch) for 72 h. Cell proliferation was measured by Cell Titer-Glo Luminescent Assay (Promega). EC50 values (50% proliferation in the presence of compound as compared to vehicle treated controls) were calculated from dose response compound curves using GraphPad Prism Software.
EC50 values are reported in Table 4: • a—Less than 100 nM; b—less than 1000 nM; c—more than 1000 nM

[1] = target: T1, histidine tagged recombinant human full-length Bruton Agammaglobulinemia Tyrosine Kinase (Btk) (Homo sapiens, UniProt Q06187); assay: Btk kinase inhibition assay (fluorescence polarization, KinEASE FP Fluorescein Green); assay type: biochemical; details: 10 μM ATP, 250 μM substrate, 60 minutes, room temperature; Ki from IC50 by Cheng-Prusoff; read-out: ki50 (nM), Inhibition of Btk
T1 construct: recombinant human full-length Bruton Agammaglobulinemia Tyrosine Kinase (Btk); histidine tag
T1 sequence (Q06187 whole entry): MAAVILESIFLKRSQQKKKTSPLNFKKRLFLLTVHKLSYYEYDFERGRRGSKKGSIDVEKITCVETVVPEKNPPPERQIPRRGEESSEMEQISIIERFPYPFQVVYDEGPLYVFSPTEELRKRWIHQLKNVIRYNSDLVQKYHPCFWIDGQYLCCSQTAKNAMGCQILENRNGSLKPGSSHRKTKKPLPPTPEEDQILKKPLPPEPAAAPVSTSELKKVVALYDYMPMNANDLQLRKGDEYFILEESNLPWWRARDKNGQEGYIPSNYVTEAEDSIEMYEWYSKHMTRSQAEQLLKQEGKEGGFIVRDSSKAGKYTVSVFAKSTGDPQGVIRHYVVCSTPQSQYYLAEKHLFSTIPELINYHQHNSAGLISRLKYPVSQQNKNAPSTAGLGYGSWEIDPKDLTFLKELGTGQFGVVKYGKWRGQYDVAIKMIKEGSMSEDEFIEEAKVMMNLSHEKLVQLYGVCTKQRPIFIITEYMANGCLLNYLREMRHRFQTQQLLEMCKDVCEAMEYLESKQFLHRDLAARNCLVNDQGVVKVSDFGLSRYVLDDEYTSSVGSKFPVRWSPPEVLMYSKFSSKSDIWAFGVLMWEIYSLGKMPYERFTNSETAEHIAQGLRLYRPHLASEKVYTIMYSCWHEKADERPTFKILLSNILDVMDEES
Description: Kinase Binding Btk and Lck Kinase Inhibition Assay
Fluorescence polarization-based kinase assays were performed in 384 well-plate format using histidine tagged recombinant human full-length Bruton Agammaglobulinemia Tyrosine Kinase (Btk) or histidine tagged recombinant Human Lymphocyte-Specific Protein Tyrosine Kinase (Lck) and a modified protocol of the KinEASE™ FP Fluorescein Green Assay supplied from Millipore. Kinase reaction were performed at room temperature for 60 minutes in presence of 250 μM substrate, 10 μM ATP and variable test article concentrations. The reaction was stopped with EDTA/kinease detection reagents and the polarization measured on a Tecan 500 instrument. From the dose-response curve obtained, the IC50 was calculated using Graph Pad Prisms® using a non-linear fit curve. The Km for ATP on each enzyme was experimentally determined and the Ki values calculated using the Cheng-Prusoff equation (see: Cheng Y, Prusoff W H. (1973) Relationship between the inhibition constant (K1) and the concentration of inhibitor which causes 50 percent inhibition (I50) of an enzymatic reaction”. Biochem Pharmacol 22 (23): 3099-108).
ki values are reported in Tables 2 and 3: • a—Less than 100 nM; b—less than 1000 nM; c—more than 1000 nM

| SMILES | EC50 (mouse splenocytes) | Ki [1] |
| --- | --- | --- |
| CC1OCc2c1c1ncnc(N)c1n2-c1ccc(Oc2cccc(NS(=O)(=O)Cc3ccccc3)c2)cc1 (stereo not drawn) [Compound 81] | > 1000 nM | < 100 nM |
| CC1OCc2c1c1ncnc(N)c1n2-c1ccc(Oc2ccncc2)cc1 (stereo not drawn) [Compound 74] | > 1000 nM | > 1000 nM |
| CC1OCc2c1c1ncnc(N)c1n2-c1ccc(Oc2cccc(CCOc3ccccc3)c2)cc1 (stereo not drawn) [Compound 115] | 100 to 1000 nM | < 100 nM |
| CC1OCc2c1c1ncnc(N)c1n2-c1ccc(Oc2cccc(OCc3ccccc3Cl)c2)cc1 (stereo not drawn) [Compound 107] | < 100 nM | < 100 nM |
| CCNc1cccc(Oc2ccc(-n3c4c(c5ncnc(N)c53)C(C)OC4)cc2)c1 (stereo not drawn) [Compound 66] | 100 to 1000 nM | < 1000 nM |
| COc1ccccc1C(=O)Nc1cccc(Oc2ccc(-n3c4c(c5ncnc(N)c53)C(C)OC4)cc2)c1 (stereo not drawn) [Compound 127] | 100 to 1000 nM | < 100 nM |
| Cc1nc(-c2cccc(Oc3ccc(-n4c5c(c6ncnc(N)c64)CCC5)cc3)c2)cs1 [Compound 117] | 100 to 1000 nM | < 100 nM |
| CC1OCc2c1c1ncnc(N)c1n2-c1ccc(Oc2cccc(NC(=O)c3cccc(Cl)c3)c2)cc1 (stereo not drawn) [Compound 119] | 100 to 1000 nM | < 100 nM |
| N#Cc1ccccc1OCc1cccc(Oc2ccc(-n3c4c(c5ncnc(N)c53)CCC4)cc2)c1 [Compound 144] | 100 to 1000 nM | < 100 nM |
| CC1OCc2c1c1ncnc(N)c1n2-c1ccc(Oc2cccnc2)cc1 (stereo not drawn) [Compound 72] | > 1000 nM | > 1000 nM |
| CC1OCc2c1c1ncnc(N)c1n2-c1ccc(Oc2cccc(OCc3cccc(C(F)(F)F)c3)c2)cc1 (stereo not drawn) [Compound 105] | 100 to 1000 nM | < 100 nM |
| CC1OCc2c1c1ncnc(N)c1n2-c1ccc(Oc2cccc(OCc3cccc(C#N)c3)c2)cc1 (stereo not drawn) [Compound 89] | 100 to 1000 nM | < 100 nM |
| Nc1ncnc2c3c(n(-c4ccc(Oc5cccc(OCc6ccc(Cl)cc6)c5)cc4)c12)CCC3 [Compound 128] | 100 to 1000 nM | < 100 nM |
| CCCCOc1cccc(Oc2ccc(-n3c4c(c5ncnc(N)c53)C(C)OC4)cc2)c1 (stereo not drawn) [Compound 136] | 100 to 1000 nM | < 100 nM |
| COCC(=O)Nc1cccc(COc2cccc(Oc3ccc(-n4c5c(c6ncnc(N)c64)C(C)OC5)cc3)c2)c1 (stereo not drawn) [Compound 132] | 100 to 1000 nM | < 100 nM |
| CC1OCc2c1c1ncnc(N)c1n2-c1ccc(Oc2cccc(OCc3ccc(Cl)cc3)c2)cc1 (stereo not drawn) [Compound 95] | 100 to 1000 nM | < 100 nM |
| COc1ccc(COc2cccc(Oc3ccc(-n4c5c(c6ncnc(N)c64)C(C)OC5)cc3)c2)cc1 (stereo not drawn) [Compound 104] | 100 to 1000 nM | < 100 nM |
| CC1OCc2c1c1ncnc(N)c1n2-c1ccc(Oc2cccc(NS(C)(=O)=O)c2)cc1 (stereo not drawn) [Compound 76] | > 1000 nM | < 1000 nM |
| Cc1ccc(Oc2ccc(-n3c4c(c5ncnc(N)c53)C(C)OC4)cc2)cc1 (stereo not drawn) [Compound 79] | > 1000 nM | < 1000 nM |
| CC1OCc2c1c1ncnc(N)c1n2-c1ccc(Oc2cccc(COc3ccccc3C#N)c2)cc1 (stereo not drawn) [Compound 134] | < 100 nM | < 100 nM |
| CC1OCc2c1c1ncnc(N)c1n2-c1ccc(Oc2cccc(OCc3cccc(Cl)c3)c2)cc1 (stereo not drawn) [Compound 97] | 100 to 1000 nM | < 100 nM |
| CCCC(=O)Nc1cccc(Oc2ccc(-n3c4c(c5ncnc(N)c53)C(C)OC4)cc2)c1 (stereo not drawn) [Compound 126] | 100 to 1000 nM | < 1000 nM |
| CC1OCc2c1c1ncnc(N)c1n2-c1ccc(Oc2cccc(OCCC3CCCCC3)c2)cc1 (stereo not drawn) [Compound 124] | 100 to 1000 nM | < 100 nM |

| SMILES | EC50 (mouse splenocytes) | Ki [1] |
| --- | --- | --- |
| CC1OCc2c1c1ncnc(N)c1n2-c1ccc(Oc2cccc(OCc3ccc(C#N)cc3)c2)cc1 (stereo not drawn) [Compound 64] | > 1000 nM | < 1000 nM |
| Cc1nc(COc2cccc(Oc3ccc(-n4c5c(c6ncnc(N)c64)C(C)OC5)cc3)c2)no1 (stereo not drawn) [Compound 87] | > 1000 nM | < 100 nM |
| COc1ccc(C(=O)Nc2cccc(Oc3ccc(-n4c5c(c6ncnc(N)c64)C(C)OC5)cc3)c2)cc1 (stereo not drawn) [Compound 110] | > 1000 nM | < 1000 nM |
| N#Cc1ccccc1COc1cccc(Oc2ccc(-n3c4c(c5ncnc(N)c53)CCC4)cc2)c1 [Compound 122] | 100 to 1000 nM | < 100 nM |
| CC(=O)Nc1ccccc1OCc1cccc(Oc2ccc(-n3c4c(c5ncnc(N)c53)C(C)OC4)cc2)c1 (stereo not drawn) [Compound 141] | 100 to 1000 nM | < 1000 nM |
| CC1OCc2c1c1ncnc(N)c1n2-c1ccc(Oc2cccc(OCc3ccccc3C(F)(F)F)c2)cc1 (stereo not drawn) [Compound 100] | < 100 nM | < 100 nM |
| COc1cccc(C(=O)Nc2cccc(Oc3ccc(-n4c5c(c6ncnc(N)c64)C(C)OC5)cc3)c2)c1 (stereo not drawn) [Compound 118] | 100 to 1000 nM | < 100 nM |
| CC1OCc2c1c1ncnc(N)c1n2-c1ccc(Oc2cccc(OCC(N)=O)c2)cc1 (stereo not drawn) [Compound 83] | > 1000 nM | > 1000 nM |
| CC1OCc2c1c1ncnc(N)c1n2-c1ccc(Oc2cccc(OCc3cccc(C(N)=O)c3)c2)cc1 (stereo not drawn) [Compound 92] | 100 to 1000 nM | < 100 nM |
| CC1OCc2c1c1ncnc(N)c1n2-c1ccc(Oc2cccc(OCc3cccc(NC(=O)C4CC4)c3)c2)cc1 (stereo not drawn) [Compound 133] | < 100 nM | < 100 nM |
| CC(C)C(=O)Nc1cccc(Oc2ccc(-n3c4c(c5ncnc(N)c53)C(C)OC4)cc2)c1 (stereo not drawn) [Compound 111] | > 1000 nM | < 1000 nM |
| COc1cccc(COc2cccc(Oc3ccc(-n4c5c(c6ncnc(N)c64)CCC5)cc3)c2)c1 [Compound 123] | 100 to 1000 nM | < 100 nM |
| Cc1nc(COc2cccc(Oc3ccc(-n4c5c(c6ncnc(N)c64)C(C)OC5)cc3)c2)cs1 (stereo not drawn) [Compound 102] | 100 to 1000 nM | < 100 nM |
| CC1OCc2c1c1ncnc(N)c1n2-c1ccc(Oc2cccc(NC(=O)Cc3ccccc3)c2)cc1 (stereo not drawn) [Compound 84] | > 1000 nM | < 100 nM |
| CC1OCc2c1c1ncnc(N)c1n2-c1ccc(Oc2cccc(O[C@@H](C)c3ccccc3)c2)cc1 (stereo partly drawn) [Compound 86] | > 1000 nM | < 100 nM |
| Nc1ncnc2c3c(n(-c4ccc(Oc5cccc(OCc6cccnc6)c5)cc4)c12)CCC3 [Compound 62] | 100 to 1000 nM | < 100 nM |
| CC1OCc2c1c1ncnc(N)c1n2-c1ccc(Oc2cccc(OCC3CC3)c2)cc1 (stereo not drawn) [Compound 138] | 100 to 1000 nM | < 100 nM |
| Nc1ncnc2c3c(n(-c4ccc(Oc5cccc(OCc6ccccc6)c5)cc4)c12)CCC3 [Compound 68] | 100 to 1000 nM | < 100 nM |
| CC1OCc2c1c1ncnc(N)c1n2-c1ccc(Oc2cccc(COc3ccccc3)c2)cc1 (stereo not drawn) [Compound 85] | 100 to 1000 nM | < 100 nM |
| CC1OCc2c1c1ncnc(N)c1n2-c1ccc(Oc2cccc(NC(=O)c3cccc(F)c3)c2)cc1 (stereo not drawn) [Compound 121] | 100 to 1000 nM | < 100 nM |
| COc1ccc(COc2cccc(Oc3ccc(-n4c5c(c6ncnc(N)c64)CCC5)cc3)c2)cc1 [Compound 129] | 100 to 1000 nM | < 100 nM |
| CC1OCc2c1c1ncnc(N)c1n2-c1ccc(Oc2cccc(OCc3cccc(OCCN(C)C)c3)c2)cc1 (stereo not drawn) [Compound 139] | 100 to 1000 nM | < 100 nM |

Source: patent US9624239B2, “Protein kinase inhibitors” (Pharmascience Inc., priority 2011, dated 2017)
